Results: patent US20160220489A1, “Intranasal Formulation for the Treatment of Cardiopulmonary Resuscitation (CPR), Cardiac Life Support (CLS), Anaphylaxis and/or Anaphylactoid Reactions” (G2B Pharma Inc., priority 2013, published 2016)
Structures can show the parent of a compound that is named as a salt. Where two headings read alike, the source gives them in different places.

How the values were obtained:
[1] = cited from earlier work
[2] = nasal spray, loading dose 5 mg, normal human subjects; cited from earlier work
[3] = Text: Unless otherwise indicated, “primary particle diameter” can refer to the particle size distribution of a powder in its non-aggregated state. Primary particle diameter can be determined using a laser-diffraction particle size distribution analyzer. In some embodiments, the particle size analyzer can be Mastersizer 2000 manufactured by Malvern Instruments Limited.
Unless otherwise indicated, “median diameter” can refer to a diameter that divides particles into two groups of equal numbers: a group with greater diameters and a group with smaller diameters. A median diameter can be determined using a laser-diffraction particle size distribution analyzer and can correspond to 50% volume in a determined cumulative particle size distribution curve. In some embodiments, the particle size analyzer can be Mastersizer 2000 manufactured by Malvern Instruments Limited.
Data Handling • 1. Using Mastersizer 2000 software, combine particle size distribution data obtained for each dispersion pressure. • 2. If necessary, conduct particle size analysis using Wet Dispersion Method. • 3. Choose the optimum dispersion pressure.

[4] = test system: rats; settings: intramuscular administration in rats; cited from earlier work
[5] = test system: rabbits; settings: inhalation in rabbits; cited from earlier work
[6] = test system: MUS; settings: in vivo; cited from earlier work
[7] = Dry Dispersion Method, dispersion air pressure 0.5 bar
[8] = Dry Dispersion Method, dispersion air pressure 1.0 bar
[9] = Dry Dispersion Method, dispersion air pressure 2.0 bar
[10] = Dry Dispersion Method, dispersion air pressure 3.0 bar
[11] = Dry Dispersion Method, dispersion air pressure 4.0 bar

C[C@H](CCC(=O)NCCS(=O)(=O)O)[C@H]1CC[C@H]2[C@@H]3CC[C@@H]4C[C@H](O)CC[C@]4(C)[C@H]3C[C@H](O)[C@]12C [bile salts, taurodeoxycholic acid]
nasal mucosal tissue damage ([1]; used as mucosal permeation enhancers (1% taurodeoxycholic acid)): severe nasal mucosal tissue damage

CNC[C@H](O)c1ccc(O)c(O)c1 [epinephrine]
Tmax (peak plasma concentration reached) [2]: 1.17 ± 0.283 h | Volume under 10% [3, 7]: 17.8 μm | Volume under 50% [3, 7]: 29.1 μm | Volume under 90% [3, 7]: 45.9 μm | Volume under 10% [3, 8]: 15.5 μm | Volume under 50% [3, 8]: 27.2 μm | Volume under 90% [3, 8]: 43.6 μm | Volume under 10% [3, 9]: 4.8 μm | Volume under 50% [3, 9]: 22.6 μm | Volume under 90% [3, 9]: 41.8 μm | Volume under 10% [3, 10]: 2.7 μm | Volume under 50% [3, 10]: 18.8 μm | Volume under 90% [3, 10]: 38.6 μm | Volume under 10% [3, 11]: 2.4 μm | Volume under 50% [3, 11]: 18.2 μm | Volume under 90% [3, 11]: 38.3 μm | Volume under 10% ([3]; Wet Dispersion Method): 18.1 μm | Volume under 50% ([3]; Wet Dispersion Method): 31.2 μm | Volume under 90% ([3]; Wet Dispersion Method): 50.7 μm | LD50 [4]: 3500 mg/kg | LD50 [5]: 2.5 mg/kg | greatest epinephrine plasma concentrations ([1]; intranasal 7.5 mg/kg/nostril of epinephrine after […] of phentolamine, dog): ~1,400 ng/mL

Cc1ccc(N(CC2=NCCN2)c2cccc(O)c2)cc1 [phentolamine]
IVN-MUS LD50 [6]: 75 mg/kg
